According to patent US11447533B2, “Antimicrobial and anticancer peptides and conjugates and compositions, methods, articles and kits relating thereto” (George Mason Research Foundation, Inc., priority 2018, dated 2022):

Legend:
[1] = test system: primary lung epithelium cells; experiment: Cytotoxicity (Alamar blue); format: cell-based, human
Method: FIGS. 11A-11B are graphs showing cytotoxicity against primary lung epithelium cells in serum-free condition. Cells were seeded in complete growth medium (Minimal essential medium supplemented with 10% fetal bovine serum) at near-confluence into a 96-well plate and allowed to settle for 24-hours. Media was then replaced to OptiMEM I reduced serum medium containing peptide or vehicle alone (DBPS) and cells were incubated overnight (16 hours). A resazurin based dye (Alamar blue) was added directly to media and conversion of resazurin to resorufin was evaluated following two hours. % Survival represents the proportion of viable cells in peptide treated cells relative to cells treated with vehicle alone. […] Each peptide was tested in triplicate.
FIG. 12 is a graph showing comparison of toxicities against Lung Primary Epithelial cells and Lung Cancerous Epithelial Cells, derived from H358 cell-line. […] Each peptide was tested in triplicate.
Cytotoxicity. Cells were seeded in complete growth medium (Minimal Essential Medium, MEMα, supplemented with 10% Fetal Bovine Serum) into a culture-treated 96-well plate at a density of 25000 cells per well. After 24 hours, culture media was aspirated and replaced with media containing the selected peptide. No-serum experiments were conducted in Opti-MEM I reduced serum media (ThermoFisher, 31985062) and 10% serum experiments were performed in complete growth medium. In all cases, DBPS was used as a vehicle only control and buffer to serially dilute the peptides. After exposure to the peptides or vehicle-alone for the defined period, Alamar blue dye (resazurin) was added directly to the media and allowed to incubate for two hours. Following incubation, A570/A600 measurements were made to calculate reduction of resazurin dye to resorufin. A ratio of reduction in treated versus untreated cells was calculated in order to determine overall cell viability. The human cells were always maintained in a 37° C. incubator under 5% CO2.

[2] = test system: E. coli ATCC 25922; experiment: Antimicrobial efficacy (resazurin virtual colony count); format: cell-based, Escherichia coli
Method: (§1) Antimicrobial Studies. The phosphate buffers used for antimicrobial assays were supplemented with non-nitrogenous energy source, 0.1% (w/v) glucose. To conduct antimicrobial assays, bacterial strains were first suspended in respective buffers. E. coli (ATCC 25922) and B. cereus (ATCC 11778) were grown in MHB II up to OD600 nm˜1 and stored as frozen stock in 20% glycerol at −80° C. Occasionally they were thawed and enumerated by serial dilution and spreading on MHB II agar plates. The concentrations of the frozen stocks of E. coli and B. cereus strains were 1.0-1.1*10^8 CFU/mL with OD600 nm˜0.8. In case of other bacterial strains, they were grown on the days of experiment up to OD600 nm˜1-1.5 and then adjusted to OD600 nm˜0.8. The growth media of the drug-resistant bacterial strains were supplemented with few of the respective antibiotics against which they are resistant. 200 μL of the 0.8 OD600 nm culture were added to 10 mL of the respective buffer to obtain a suspension which was used to incubate with equal volumes of peptide solution in the same buffer.
(§2) Antimicrobial assays in different phosphate buffers and serum were conducted by adapting, with necessary modifications a fast high-throughput method based on Virtual Colony Count technique and later modified by incorporating the use of resazurin. At first serial dilution of a microbial strain in respective buffer was poured in the wells of 96 well polypropylene microplate and was then added with same volume of 2× MHB II supplemented with 80 μg/mL resazurin and incubated at 35° C. in a Gemini EM Microplate Reader (Molecular Devices) overnight with intermittent shaking. As the microbe grows it reduces non-fluorescent resazurin to fluorescent resorufin and the fluorescent intensity of each well were measured (excitation=570 nm, emission=590 nm) each 5 min for 15 hours. The time (t, min) to reach a certain fluorescence (RFU=20000 with respect to the starting fluorescence) was correlated with the initial bacterial concentration (in CFU/mL) in the particular well to obtain a calibration plot of the form: Log([Bacteria],CFU/mL)=b+m*t Equation 4: […]
(§3) To obtain antimicrobial efficacy of the peptides, 50 μL of serially diluted peptide in a buffer was incubated with 50 μL microbial suspension in the same buffer for 3 hours in black polypropylene 96 well plate. After incubation the wells were added with 100 μL of 2× MHB II supplemented with 80 μg/mL resazurin and then incubated with continuous fluorescence reading for overnight time period as described earlier. The surviving microbial population (CFU/mL) in each well were calculated by first finding the time to reach a fluorescence of RFU=20000 and the correlation (4) for the specific microbial strain and buffer. % Survival represents the proportion of viable cells in peptide treated cells relative to cells treated with the respective buffer alone. Equation 5: […]
Finally, the antimicrobial effectiveness of each peptide against the particular microbial strain in the specific buffer was determined by plotting % microbial survival as a function of the log of the concentration of the peptide and fitting the resulting data to a variable-slope sigmoidal regression model (equation 6). In this equation, log(EC50) represents the log of the concentration of the peptide required to kill half of the microbial population, where Smin and Smax correspond to the minimal and maximal microbial survival values (respectively), and H, Hill slope, is the parameter defining the steepness of the transition slopes of sigmoidal survival curves. % Microbial survival=Smin+(Smax−Smin)/(1+10^log(EC^50^)-log[peptide]*H) Equation 6: […]
The antimicrobial efficacies of the peptides were first tested against the model Gram-negative bacteria, E. coli ATCC 25922, in different phosphate buffers having varied ionic strengths and compositions. The phosphate buffers that were used included 10 mM sodium phosphate (calculated ionic strength˜25 mM), PBS and DPBS. […]

[3] = test system: Pseudomonas aeruginosa; experiment: Antimicrobial efficacy against ESKAPE pathogens; format: cell-based; conditions: mammalian serum
Method: as §1, §2, §3
Finally, the antimicrobial effectiveness of each peptide against the particular microbial strain in the specific buffer was determined by plotting % microbial survival as a function of the log of the concentration of the peptide and fitting the resulting data to a variable-slope sigmoidal regression model (equation 6). […]
ATRA1-R3W2-HYD, NA-CATH and PMB were evaluated for their effectiveness in mammalian serum conditions against pathogenic bacteria of both normal and drug-resistant strains. […]

[4] = test system: E. coli ML35p outer membrane; experiment: Outer membrane disruption (β-lactamase leakage, nitrocefin); format: cell-based, Escherichia coli; conditions: DPBS; HCMAB = 100%
Method: (§4) Interactions with Bacterial Membranes. Interaction of the peptides with bacterial membranes in different phosphate buffers were evaluated using E. coli ML35p, constructed in our laboratory. At first, competent cells of E. coli ML35 were produced by conventional competent cell preparation method, then transformed with pBR322 plasmid. Transformed colonies were selected after growing on Luria-agar containing 50 μg/mL ampicillin. A single transformed colony was grown in presence of ampicillin first in Luria broth and then in MHBII and stored as 20% glycerol stock at −80° C. This frozen stock, on the day of the experiment, was thawed and grown in MHBII containing ampicillin up to OD600 nm=0.8-0.9, washed with PBS and then suspended in the respective buffer up to the required OD600 nm for use.
Membrane Disruptions. The outer and the inner membrane disruptions by the peptides were evaluated by incubating bacterial suspension with peptides and then measuring the activity of enzymes leaked out of the cells. 100 μL of 10× concentration of peptide in water was incubated with 900 μL bacterial suspension (OD600 nm˜0.1) in respective buffer for 3 hours at room temperature with gentle rotation. Then the cells and debris were separated by centrifugation (10000 r.p.m. for 30 mins) and the supernatant was collected and tested for activity of enzymes that had leaked out of the bacterial cells. HCMAB was used as a positive control to cause 100% membrane disruption and water as a negative causing 0% disruption.
The outer membrane disruption was tested by using the activity of beta-lactamase present in the periplasmic space of E. coli ML35p. Peptides when disrupt the outer membrane enough to cause beta-lactamase to come out, the degree of disruption can be measured by the virtue of the kinetics of the enzyme and using a chromogenic cephalosporin substrate called nitrocefin. β-lactamase mediated hydrolyzed product of nitrocefin has an absorbance αmax=486 nm. Supernatant collected from the incubation of peptide with bacteria was added with nitrocefin solution in DPBS and incubated at 35° C. and continuous absorbance readings. The slope of the linear section of the absorbance curve (absorbance vs time), was used as a measure of membrane disruption and the % Disruption was calculated as: Equation 7: […]
Some of the ATRA1-variants were further tested for their ability to disrupt outer and inner membranes to form pores or disruptions sufficiently large so as to allow enzymes to leak out of their cellular compartments (cytoplasm or periplasmic space). For this purpose, two reporter molecules were used with one being the substrate of a cytoplasmic enzyme and the other was a substrate for an enzyme residing in the periplasmic space. One of the reporters, nitrocefin was the substrate for β-lactamase, which is present in the bacterial periplasm, whereas the other molecule, ONPG, was the substrate for β-galactosidase, which resides in the cytoplasm of E. coli ML35p strain. […] Similarly, β-galactosidase activity in the supernatants is evidence of inner membrane disruption and possible pore formation. When the aforesaid supernatants were tested for nitrocefin and ONPG hydrolysis, the corresponding absorbance increased with time (data not shown) indicating β-lactamase and β-galactosidase activity, respectively, and thus disruption of both the inner and outer membranes. The slopes of the increase in absorbance as a function of time provides the rate of enzyme activity. The enzyme activities in supernatants collected after incubation of bacteria with the quaternary ammonium surfactant, hexadecyltrimethylammonium bromide (HCMAB) was used as an internal reference for 100% membrane disruption. Enzyme activity for supernatants collected for cells incubated in the absence of peptide provided a reference for 0% membrane disruption. Bee venom peptide melittin was used as a positive control. […]

[5] = test system: E. coli ML35p outer membrane; experiment: NPN assay, outer membrane perturbation; format: cell-based, Escherichia coli; conditions: PBS; 25 μM peptide; 25 μM PMB = 100%
Method: as §4
NPN Assay. The outer membrane perturbation of bacteria was evaluated by incubating E. coli ML35p with peptides in presence of NPN. 100 mM NPN in acetone was supplemented proportionately to a bacterial suspension of OD600 nm˜0.5 to achieve a final concentration of 20 μM of NPN and the mixture was equilibrated for 30 mins. Then, 90 μL of the bacterial suspension containing 20 μM NPN was added with 10 μL of 250 μM peptide (10×) solution in water and scanned for fluorescence intensity (excitation=350 nm, emission=420 nm). The % Perturbation was calculated by considering PMB to be causing 100% Perturbation and water (without peptide) as 0% Perturbation. Each peptide was tested in triplicate in each of the three phosphate buffers used.
When peptides partition from the bulk aqueous environment to the cellular membranes, they may cause small defects in the membrane organization, a signature of adsorption of the peptides into the membranes. Such small defects are called membrane perturbations and can be evaluated by utilizing molecular probes. One such molecular probe is NPN, which is a hydrophobic molecule and is usually repelled to enter the hydrophobic interiors of the membrane by the polar headgroups of membrane-lipids. However, when small defects and gaps are caused during the adsorption of the peptides into the membranes, NPN can enter through those defects and in the hydrophobic environment of the membrane interior the molecule fluoresces, which can be measured for quantification of the extent of membrane-perturbation and peptide adsorption in the cellular membrane.

[6] = test system: B. cereus ATCC 11778; experiment: Antimicrobial efficacy (resazurin virtual colony count); format: cell-based, Bacillus cereus; conditions: DPBS
Method: as §1, with “200 μL of the 0.8 OD600 nm culture were added to 10 mL of the respective buffer to obtain a suspension which was used to incubate with equal volumes of peptide solution in the same buffer.” left out
as §2

[7] = test system: leucocytes and T-cells; conditions: cited from earlier work
[8] = ~16 hours (overnight), reduced serum conditions

| Compound | concentration over which significant toxicity was observed [1, 8] | increase of EC50 in presence of albumin relative to EC50 in DPBS ([2]; DPBS + 4% (w/v) bovine serum albumin versus DPBS) | antimicrobial efficacy, in words ([2]; serum) | antimicrobial effectiveness, in words [3] | outer membrane disruption (β-lactamase activity) relative to HCMAB [4] | membrane perturbation with respect to PMB [5] | antimicrobial efficacy, in words ([2]; DPBS (with Ca++ and Mg++), pH 7.4) | antimicrobial efficacy, in words ([2]; PBS (high / physiologically relevant ionic strength), pH 7.4) | antimicrobial efficacy, in words [6] | concentration over which toxicity was exhibited ([1]; ~6 hours, 10% fetal bovine serum) | cytotoxicity, in words [1, 8] | concentrations of significant cytotoxicity [7] |
| --- | --- | --- | --- | --- | --- | --- | --- | --- | --- | --- | --- | --- |
| Polymyxin B [PMB, reference compound] | > 6 µM | approximately 3 fold | retained significant antimicrobial activities | effective |  |  |  |  |  |  |  |  |
| KRFKKFFKKFK (SEQ ID NO: 11) [ATRA1-F] |  |  |  |  | intermediate | decreased slightly | lost activity in DPBS | more effective than ATRA1 | somewhat effective |  |  |  |
| CC[C@H](C)[C@H](NC(=O)[C@H](CCCCN)NC(=O)[C@H](CCC(=O)O)NC(=O)[C@H](CCCCN)NC(=O)[C@H](CO)NC(=O)[C@H](CCCCN)NC(=O)[C@H](CCCNC(=N)N)NC(=O)[C@H](Cc1ccccc1)NC(=O)[C@H](Cc1ccccc1)NC(=O)[C@H](CC(=O)O)NC(=O)CNC(=O)[C@H](CC(C)C)NC(=O)[C@@H](N)CC(C)C)C(=O)NCC(=O)N[C@@H](CCCCN)C(=O)N[C@@H](CCC(=O)O)C(=O)N[C@@H](Cc1ccccc1)C(=O)N[C@@H](CCCCN)C(=O)N[C@@H](CCCNC(=N)N)C(=O)N[C@H](C(=O)N[C@H](C(=O)N[C@@H](CCC(N)=O)C(=O)N[C@@H](CCCNC(=N)N)C(=O)N[C@H](C(=O)N[C@@H](CCCCN)C(=O)N[C@@H](CC(=O)O)C(=O)N[C@@H](Cc1ccccc1)C(=O)N[C@@H](CC(C)C)C(=O)N[C@@H](CCCNC(=N)N)C(=O)N[C@@H](CC(N)=O)C(=O)N[C@@H](CC(C)C)C(=O)N[C@H](C(=O)N1CCC[C@H]1C(=O)N[C@@H](CCCNC(=N)N)C(=O)N[C@H](C(=O)N[C@@H](CCC(=O)O)C(=O)N[C@@H](CO)C(=O)O)[C@@H](C)O)C(C)C)[C@@H](C)CC)C(C)C)[C@@H](C)CC [LL37] | Over 10 μM |  |  |  |  |  |  |  |  | > 10 µM | higher degrees of cytotoxicity | 13 to 25 µM |
